Each block holds one compound with its values, some of them ahead of it.
Biological target: human DGAT2 (Homo sapiens (Human), UniProt Q96PD7)
Assay: Measurement of inhibitory effect against DGAT2 enzyme activity (SPA, Phospholipid FlashPlate, [14C]-TG production)
Format: biochemical
Settings: recombinant human DGAT2 membrane protein from Sf-21 cells; inhibition of [14C]-TG production; 37° C.
Text: Experimental Example: Measurement of Inhibitory Effect Against DGAT2 Enzyme Activity
1. Preparation of DGAT2 Expression Vector
In order to prepare the pBacPAK9-DGAT2, which is DGAT2 expression vector, the human DGAT2 gene amplified by polymerase chain reaction (PCR) was cloned into the EcoR1 and Xho1 sites of the pBacPAK9 (clonctech) vector. The nucleotide sequence of the primers used in PCR was the forward primer 5′ […] and the reverse primer 5′ […]. The composition of the reaction solution was to contain 50 ng of cDNA clone (OriGene), 200 μM of dATP, dCTP, dTTP, dGTP, 200 nM of each primer, 1 unit of Tag DNA Polymerase (Toyobo), 1x PCR buffer, and the final volume was adjusted to 20 μl. The reaction conditions were denatured at 95° C. for 5 minutes, followed by 30 times of 94° C. for 20 seconds, 60° C. for 20 seconds, and 72° C. for 90 seconds, followed by further reaction at 72° C. for 7 minutes.
2. DGAT2 Expression and Preparation of Membrane Protein
Recombinant human DGAT2 protein was expressed in Sf-21 cells, which are insect cells, by using the BacPack baculovirus expression system (Clontech). The brief manufacturing process is as follows. First, the pBacPAK9-DGAT2 expression vector was transfected with BacPAK6 virus DNA (Bsu36I digest) into sf21 cells using Bacfectin to prepare a recombinant DGAT2 expressing baculovirus. The thus prepared baculovirus was infected with Sf-21 cells at 10 MOI (multiplicity of infection), and after 72 hours, infected insect cells were collected and membrane proteins were isolated. For membrane protein separation, the cell pellet was dissolved in a sucrose solution containing 250 mM sucrose, 10 mM Tris (pH 7.4), and 1 mM ethylenediamine-tetraacetic acid (EDTA), and then homogenized by using a dounce homogenizer, and the supernatant was taken by centrifuging at 600×g for 15 minutes, and centrifuged at 100,000×g for 1 hour to discard the supernatant, and the remaining pellet was resuspended in 20 mM HEPES buffer (pH 7.4). The prepared DGAT2 overexpressing membrane protein was dispensed in 100 μl and stored at −80° C. until use. Protein concentration was quantified by using the BCA Protein Assay Kit (Thermo Scientific).
3. Measurement of Inhibitory Effect Against DGAT2 Enzyme Activity
In vitro DGAT2 analysis was performed using a Phospholipid Flash Plate (PerkinElmer) based on the principle of SPA (Scintilation Proximity Assay). First, DGAT2 inhibition compounds serially diluted 5 times from 3 nM to 10 μM (final concentration, 1% DMSO) were mixed in a buffer solution containing 2 μg DGAT2-membrane protein and 20 mM HEPES, 20 mM MgCl2, 1 mg/mL BSA, 50 μM 1,2 sn-oleoyl glycerol (Sigma), put in a 96-well flash plate (FlashPlate) and reacted at 37° C. for 20 minutes, and then 1 μM [14C] ole oil CoA (PerkinElmer, NEC651050UC) was added to be a final volume of 100 μL and further reacted at 37° C. for 15 minutes. After the enzymatic reaction was completed, 100 μL of isopropanol was added, the plate was sealed with a film, and the plate was shaken slowly in a plate shaker. The next day, the amplified scintillation signal (cpm) in Topcounter (Packard) was measured to measure the degree of production of [14C]-labeled triacyl glycerol (TG) as a reaction product. The measured value when the compound was not treated was used as a positive control, and the measured value of the compound treated group was calculated as a relative % to measure the inhibition effect of the compound on TG production. The IC50 value, which is the concentration of the compound that inhibits TG production by 50%, was determined by treating the response value according to the compound concentration with a nonlinear regression curve using PRISM (Graphpad Inc.).

human DGAT2, sequence (Q96PD7 whole entry): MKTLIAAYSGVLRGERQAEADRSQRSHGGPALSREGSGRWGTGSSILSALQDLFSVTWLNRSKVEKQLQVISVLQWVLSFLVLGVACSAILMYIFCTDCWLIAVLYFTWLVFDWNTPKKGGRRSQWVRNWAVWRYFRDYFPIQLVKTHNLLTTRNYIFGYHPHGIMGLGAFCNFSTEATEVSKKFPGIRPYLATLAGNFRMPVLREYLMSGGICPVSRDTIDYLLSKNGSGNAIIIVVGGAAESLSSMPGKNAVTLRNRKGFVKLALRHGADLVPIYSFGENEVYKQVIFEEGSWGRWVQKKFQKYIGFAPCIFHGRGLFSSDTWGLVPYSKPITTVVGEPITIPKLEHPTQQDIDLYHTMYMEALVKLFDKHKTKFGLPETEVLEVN

- IC50: 35 nM
Structure (SMILES): CCOc1ccccc1Oc1cncc(-c2cncc(NC(=O)CCc3ccccc3)n2)c1 [Example 1, N-(6-(5-(2-ethoxyphenoxy)pyridin-3-yl)pyrazin-2-yl)-3-phenylpropanamide]

Structure (SMILES): CCOc1ccccc1Oc1cncc(-c2cncc(NC(=O)Cc3ccc(CC(=O)OC)cc3)n2)c1 [Example 2, methyl 2-(4-(2-((6-(5-(2-ethoxyphenoxy)pyridin-3-yl)pyrazin-2-yl)amino)-2-oxoethyl)phenyl)acetate]
- IC50: 27 nM

Structure (SMILES): CCOc1ccccc1Oc1cncc(-c2cncc(NC(=O)Cc3ccc(CC(=O)O)cc3)n2)c1 [Example 3, 2-(4-(2-((6-(5-(2-ethoxyphenoxy)pyridin-3-yl)pyrazin-2-yl)amino)-2-oxoethyl)phenyl)acetic acid]
- IC50: 3400 nM

Structure (SMILES): CCOc1ccccc1Oc1cncc(-c2cncc(NC(=O)CCc3ccc(CC(=O)O)cc3)n2)c1 [Example 4, 2-(4-(3-((6-(5-(2-ethoxyphenoxy)pyridin-3-yl)pyrazin-2-yl)amino)-3-oxopropyl)phenyl)acetic acid]
- IC50: 290 nM

Structure (SMILES): CCOc1ccccc1Oc1cncc(-c2cncc(NC(=O)CCc3ccc(C(C)(C)C(=O)OC)cc3)n2)c1 [Example 5, methyl 2-(4-(3-((6-(5-(2-ethoxyphenoxy)pyridin-3-yl)pyrazin-2-yl)amino)-3-oxopropyl)phenyl)-2-methylpropanoate]
- IC50: 11 nM

Structure (SMILES): CCOc1ccccc1Oc1cncc(-c2cncc(NC(=O)Cc3ccc(CC(C)(C)C(=O)O)cc3)n2)c1 [Example 7, 3-(4-(2-((6-(5-(2-ethoxyphenoxy)pyridin-3-yl)pyrazin-2-yl)amino)-2-oxoethyl)phenyl)-2,2-dimethylpropanoic acid]
- IC50: 36 nM

Structure (SMILES): CCOc1ccccc1Oc1cncc(-c2cncc(Nc3nccc(N4CCC[C@@H](C(=O)O)C4)n3)n2)c1 [Example 8, (R)-1-(2-((6-(5-(2-ethoxyphenoxy)pyridin-3-yl)pyrazin-2-yl)amino)pyrimidin-4-yl)piperidine-3-carboxylic acid]
- IC50: 1800 nM

- IC50: 160 nM
Structure (SMILES): CCOc1ccccc1Oc1cncc(-c2cncc(Nc3cccc(-c4cccc(CC(C)(C)C(=O)O)c4)n3)n2)c1 [Example 9, 3-(3-(6-((6-(5-(2-ethoxyphenoxy)pyridin-3-yl)pyrazin-2-yl)amino)pyridin-2-yl)phenyl)-2,2-dimethylpropanoic acid]

Structure (SMILES): CCOc1ccccc1Oc1cccc(-c2cncc(NC(=O)CCc3ccc(OC(C)(C)C(=O)O)cc3)n2)c1 [Example 13, 2-(4-(3-((6-(3-(2-ethoxyphenoxy)phenyl)pyrazin-2-yl)amino)-3-oxopropyl)phenoxy)-2-methylpropanoic acid]
- IC50: 330 nM

Structure (SMILES): CCOc1ccccc1Oc1cccc(-c2cncc(NC(=O)Cc3ccc(CC(C)(C)C(=O)O)cc3)n2)c1 [Example 15, 3-(4-(2-((6-(3-(2-ethoxyphenoxy)phenyl)pyrazin-2-yl)amino)-2-oxoethyl)phenyl)-2,2-dimethylpropanoic acid]
- IC50: 13 nM

Structure (SMILES): CCOc1ccccc1Oc1cccc(-c2cncc(NC(=O)C(C)(C)c3ccc(CC(C)(C)C(=O)O)cc3)n2)c1 [Example 18, 3-(4-(1-((6-(3-(2-ethoxyphenoxy)phenyl)pyrazin-2-yl)amino)-2-methyl-1-oxopropan-2-yl)phenyl)-2,2-dimethylpropanoic acid]
- IC50: 22 nM

Structure (SMILES): CCOc1ccccc1Oc1cccc(-c2cncc(NC(=O)Cc3ccc(OC(C)(C)C(=O)O)cc3)n2)c1 [Example 19]
- IC50: 430 nM

Structure (SMILES): CCOc1ccccc1Oc1cccc(-c2cncc(Nc3nccc(-c4ccc(CC(=O)O)cc4)n3)n2)c1 [Example 20, 2-(4-(2-((6-(3-(2-ethoxyphenoxy)phenyl)pyrazin-2-yl)amino)pyrimidin-4-yl)phenyl)acetic acid]
- IC50: 3900 nM

Structure (SMILES): CCOc1ccccc1Oc1cccc(-c2cncc(Nc3nccc(O[C@H]4CC[C@H](C(=O)O)CC4)n3)n2)c1 [Example 21, (1r,4r)-4-((2-((6-(3-(2-ethoxyphenoxy)phenyl)pyrazin-2-yl)amino)pyrimidin-4-yl)oxy)cyclohexane-1-carboxylic acid]
- IC50: 1200 nM

Structure (SMILES): CCOc1ccccc1Oc1cccc(-c2cncc(NC(=O)CCc3ccccc3)n2)n1 [Example 22, N-(6-(6-(2-ethoxyphenoxy)pyridin-2-yl)pyrazin-2-yl)-3-phenylpropanamide]
- IC50: 2100 nM

Structure (SMILES): CCOc1ccccc1Oc1cccc(-c2cncc(NC(=O)Cc3ccc(CC(C)(C)C(=O)O)cc3)n2)n1 [Example 23, 3-(4-(2-((6-(6-(2-ethoxyphenoxy)pyridin-2-yl)pyrazin-2-yl)amino)-2-oxoethyl)phenyl)-2,2-dimethylpropanoic acid]
- IC50: 61 nM

Structure (SMILES): CCOc1ccccc1Oc1cccc(-c2cncc(Nc3nccc(N4CCC[C@@H](C(=O)O)C4)n3)n2)n1 [Example 24, (R)-1-(2-((6-(6-(2-ethoxyphenoxy)pyridin-2-yl)pyrazin-2-yl)amino)pyrimidin-4-yl)piperidine-3-carboxylic acid]
- IC50: 7400 nM

Structure (SMILES): CCOc1ccccc1Oc1cccc(-c2cncc(Nc3cccc(-c4cccc(CC(C)(C)C(=O)O)c4)n3)n2)n1 [Example 25, 3-(3-(6-((6-(6-(2-ethoxyphenoxy)pyridin-2-yl)pyrazin-2-yl)amino)pyridin-2-yl)phenyl)-2,2-dimethylpropanoic acid]
- IC50: 450 nM

Structure (SMILES): CCOc1cccnc1Oc1cccc(-c2cncc(NC(=O)CCc3ccc(C(C)(C)C(=O)O)cc3)n2)c1 [Example 26, 2-(4-(3-((6-(3-((3-ethoxypyridin-2-yl)oxy)phenyl)pyrazin-2-yl)amino)-3-oxopropyl)phenyl)-2-methylpropanoic acid]
- IC50: 21 nM

Structure (SMILES): CCOc1cccnc1Oc1cccc(-c2cncc(NC(=O)Cc3ccc(CC(C)(C)C(=O)O)cc3)n2)c1 [Example 27, 3-(4-(2-((6-(3-((3-ethoxypyridin-2-yl)oxy)phenyl)pyrazin-2-yl)amino)-2-oxoethyl)phenyl)-2,2-dimethylpropanoic acid]
- IC50: 7.4 nM

Structure (SMILES): CCOc1cccnc1Oc1cccc(-c2cncc(NC(=O)CCc3ccc(OC(C)(C)C(=O)O)cc3)n2)c1 [Example 28, 2-(4-(3-((6-(3-((3-ethoxypyridin-2-yl)oxy)phenyl)pyrazin-2-yl)amino)-3-oxopropyl)phenoxy)-2-methylpropanoic acid]
- IC50: 210 nM

Structure (SMILES): CCOc1cccnc1Oc1cccc(-c2cncc(NC(=O)C(C)(C)c3ccc(CC(C)(C)C(=O)O)cc3)n2)c1 [Example 29, 3-(4-(1-((6-(3-((3-ethoxypyridin-2-yl)oxy)phenyl)pyrazin-2-yl)amino)-2-methyl-1-oxopropane-2-yl)phenyl)-2,2-dimethylpropanoic acid]
- IC50: 6.7 nM

Structure (SMILES): CCOc1cccnc1Oc1cccc(-c2cncc(Nc3nccc(N4CCC[C@@H](C(=O)O)C4)n3)n2)c1 [Example 31, (R)-1-(2-((6-(3-((3-ethoxypyridin-2-yl)oxy)pheny)pyrazin-2-yl)amino)pyrimidin-4-yl)piperidine-3-carboxylic acid]
- IC50: 9200 nM

Structure (SMILES): CCOc1cccnc1Oc1cccc(-c2cncc(Nc3cccc(-c4cccc(CC(C)(C)C(=O)O)c4)n3)n2)c1 [Example 32, 3-(3-(6-((6-(3-((3-ethoxypyridin-2-yl)oxy)phenyl)pyrazin-2-yl)amino)pyridin-2-yl)phenyl)-2,2-dimethylpropanoic acid]
- IC50: 70 nM

Structure (SMILES): CCOc1cccnc1Oc1cccc(-c2cncc(Nc3nccc(O[C@H]4CC[C@H](C(=O)O)CC4)n3)n2)c1 [Example 33, (1r,4r)-4-((2-((6-(3-((3-ethoxypyridin-2-yl)oxy)phenyl)pyrazin-2-yl)amino)pyrimidin-4-yl)oxy)cyclohexane-1-carboxylic acid]
- IC50: 3400 nM
